The values below come from publication PMC5007854, “β-Nitrostyrenes as Potential Anti-leishmanial Agents” (Frontiers in Microbiology, 2016).

In data set [1] the test system is L. donovani promastigotes. In words: Leishmanicidal assay (growth reversion after wash-out). Format: cell-based, Leishmania donovani. Conditions: 1 μM, 72 h treatment, then 72 h in fresh media. Here is the method: To confirm the leishmanicidal effect of compounds 9, 12, 14, and 18, treated and untreated parasites (1 μM) after 72 h of incubation, were washed two times with fresh incomplete medium and finally resuspended in complete media, transferred back to 22°C and allowed to grow for 72 h. The viability of the parasites was determined microscopically (Afrin et al., [2001]).

In data set [2] the test system is nitric oxide production in L. donovani infected peritoneal macrophages. In words: Nitrite (NO) production by Griess reaction in infected macrophages. Format: cell-based, BALB/c mice. Conditions: 48 h; for NO levels, in words: 0–25 μM; for NO production (nitrite): compound at 25 μM. On the procedure:
The supernatant from control L. donovani infected and treated macrophages were analyzed for nitrite content by the Griess reaction. In brief, equal volume of Griess reagent [1%sulphanilamide and 0.1% N-(1-naphthyl) ethylenediaminedihydrochloride in 5% phosphoric acid] was added to the culture supernatant and the plates were incubated for 10 min at room temperature using sodium nitrite as a standard. The absorbance at 550 nm was measured and the concentration of nitrite was calculated by a linear regression analyzing the standard curve generated with sodium nitrite (Varela et al., [2012]).

The subject of data set [3] is murine macrophage cell line RAW264.7. In words: Ex vivo cytotoxicity assay (MTT). In kind it is cell-based. Conditions: increasing concentrations, 48 h, 37°C (Figure 6). Here is the method: Murine macrophage cell line, RAW264.7 was grown at 37°C in medium RPMI-1640 (pH 7.4, Sigma-Aldrich, St. Louis, MO, USA) supplemented with 10% heat-inactivated FBS for 48 to 72 h in a humidified atmosphere of 5% CO2 and sub-cultured in fresh RPMI-1640 medium at an average density 2 × 10^5 cells/ml (Islamuddin et al., [2014b]).
To evaluate the adverse toxicity of test compounds (9, 12, 14, and 18) on mammalian cells, the murine macrophage cell line (RAW264.7) cultured in RPMI 1640 medium were exposed to increasing concentrations of test compounds (5–50 μM) at 37°C, 5% CO2 for 48 h. AmB as the reference drug, and macrophages without any treatment were taken as control. The percentage of cell viability was evaluated by MTT (3-{4, 5-dimethylthiazol-2-yl}-2, 5-diphenyltetrazoliumbromide) assay (Das et al., [2008]).

Data set [4] concerns Candida glabrata ATCC 90030. In words: Broth microdilution antifungal susceptibility (MIC/MFC). In kind it is cell-based. Conditions: for MIC / MFC: Nakaseomyces glabratus; for MIC: ATCC90030, 48 h. The gist of the method: (§1)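 CLSI broth microdilution: Ca/Mg-supplemented Mueller-Hinton for bacteria (~5 × 10^5 CFU/mL, 24 h), MOPS-buffered RPMI 1640 pH 7.0 for fungi (Candida ~2.5 × 10^4, Aspergillus 0.4-5 × 10^4 CFU/mL, 48 h), 35°C, 1% DMSO, 64 to 0.12 μg/mL. MIC read visually; MBC/MFC by plating clear wells.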
For orientation: In broth dilution the organism is exposed to a series of concentrations in liquid medium.

The test system of data set [5] is Candida albicans ATCC 90028. The data set is described as above. In kind it is cell-based. Conditions: for MIC / MFC: Candida albicans; for MIC: ATCC90028, 48 h. The gist of the method: as §1
The subject of data set [6] is Escherichia coli ATCC 25922. Nature of the data set: Broth microdilution antibacterial susceptibility (MIC/MBC). In kind it is cell-based. Conditions: for MIC / MBC: Escherichia coli; for MIC: ATCC25922, 24 h. The essentials:
as §1

Data set [7] deals with Staphylococcus aureus ATCC 29213. Described as above. Format: cell-based. Conditions: Staphylococcus aureus; for MIC: ATCC29213, 24 h. The gist of the method:
as §1

Data set [8] relates to Pseudomonas aeruginosa ATCC 27853. The data set is described as above. In kind it is cell-based. Conditions: for MIC / MBC: Pseudomonas aeruginosa; for MIC: ATCC27853, 24 h. The gist of the method: as §1
The test system of data set [9] is Staphylococcus epidermidis ATCC 14990. The description is as above. Format: cell-based. Conditions: for MIC / MBC: Staphylococcus epidermidis; for MIC: ATCC14990, 24 h. The gist of the method: as §1
Where [10] appears, read: read-out: MIC, Cg ATCC 90030, broth microdilution, 35°C, 48 h.
[11] abbreviates: ATCC90030, read-out: MFC, Cg ATCC 90030.
Setting [12] is: broth microdilution, 35°C, 48 h.
Where [13] appears, read: read-out: MIC, Ca ATCC 90028, broth microdilution, 35°C, 48 h.
The mark [14] stands for this setting: ATCC90028, read-out: MFC, Ca ATCC 90028.
The mark [15] stands for this setting: read-out: MIC, Ec ATCC 25922, broth microdilution, 35°C, 24 h.
Setting [16] is: ATCC25922, read-out: MBC, Ec ATCC 25922.
The mark [17] stands for this setting: broth microdilution, 35°C, 24 h.
Where [18] appears, read: ATCC29213, read-out: MBC, Sa ATCC 29213.
The mark [19] stands for this setting: read-out: MIC, Pa ATCC 27853, broth microdilution, 35°C, 24 h.
Setting [20] is: ATCC27853, read-out: MBC, Pa ATCC 27853.
Setting [21] is: read-out: MIC, Se ATCC 14990, broth microdilution, 35°C, 24 h.
Setting [22] is: ATCC14990, read-out: MBC, Se ATCC 14990.
The mark [23] stands for this setting: ATCC90030, ≥99.9% reduction of original inoculum, read-out: MFC, Cg ATCC 90030.
[24] abbreviates: ATCC90028, ≥99.9% reduction of original inoculum, read-out: MFC, Ca ATCC 90028.
The mark [25] stands for this setting: ATCC25922, ≥99.9% reduction of original inoculum, read-out: MBC, Ec ATCC 25922.
Where [26] appears, read: ATCC29213, ≥99.9% reduction of original inoculum, read-out: MBC, Sa ATCC 29213.
[27] abbreviates: ATCC27853, ≥99.9% reduction of original inoculum, read-out: MBC, Pa ATCC 27853.
[28] abbreviates: ATCC14990, ≥99.9% reduction of original inoculum, read-out: MBC, Se ATCC 14990.

Values after ≈ are worked out from the molar mass of the structure shown. Where two headings read alike, the source gives them in different places.

For orientation: MIC means the lowest concentration that inhibits growth of the organism. By MFC is commonly meant the smallest concentration meeting the test's criterion for killing the fungus. One may read the MBC as the lowest tested concentration that kills the bacteria rather than only halting them. In the case of `CC/C(=C\c1ccc([N+](=O)[O-])cc1)[N+](=O)[O-]` [Compound 9, 1-nitro-4-((E)-2-nitrobut-1-enyl) benzene], in [1], the “Leishmanicidal effect (reversion after wash and 72 h in fresh media)” value (“Leishmanicidal effect” for short) was “did not revert back to their normal morphology and still appeared dead”. In addition, the “NO levels, in words” value in data set [2] is on record as “moderately increased”. In addition, in data set [2], the “NO production (nitrite)” value was 8.05 µM. Moreover, in [3], the “Adverse toxicity on macrophage cell line RAW264.7” value (“Adverse toxicity” below) is listed as “Absence of adverse toxicity”. The MIC was 0.25 to 16 µg/mL (≈ 1.13 to 72 µM) in data set [4] (setting [10]); 4 to 32 µg/mL (≈ 18 to 144 µM) in data set [5] (setting [13]); 16 to 32 µg/mL (≈ 72 to 144 µM) in data set [6] (setting [15]); 16 to 32 µg/mL (≈ 72 to 144 µM) in data set [8] (setting [19]); 2 to 16 µg/mL (≈ 9 to 72 µM) in [9] (setting [21]). Also, the MFC in data set [4] (setting [11]) is 0.25 µg/mL (≈ 1.13 µM); in data set [5] (setting [14]) it was 8 µg/mL (≈ 36 µM). In data set [4] (setting [12]), the “MIC, Cg ATCC 90030” value turned out to be 0.25 µg/mL (≈ 1.13 µM). For the same molecule, the “MIC, Ca ATCC 90028” value in [5] (setting [12]) came out at 8 µg/mL (≈ 36 µM). The MBC in data set [6] (setting [16]) turned out to be 32 µg/mL (≈ 144 µM); in data set [7] (setting [18]) it was 8 µg/mL (≈ 36 µM); in [8] (setting [20]), 32 µg/mL (≈ 144 µM); in data set [9] (setting [22]), 4 µg/mL (≈ 18 µM). The “MIC, Ec ATCC 25922” value in data set [6] (setting [17]) was 16 µg/mL (≈ 72 µM). Besides, the “MIC, Pa ATCC 27853” value in data set [8] (setting [17]) was determined as 16 µg/mL (≈ 72 µM). In addition, the “MIC, Se ATCC 14990” value in data set [9] (setting [17]) was determined as 4 µg/mL (≈ 18 µM).

Take `CC/C(=C\c1cccc([N+](=O)[O-])c1)[N+](=O)[O-]` [Compound 12, 1-nitro-3-((E)-2-nitrobut-1-enyl) benzene]: in data set [1], the “Leishmanicidal effect” value is “did not revert back to their normal morphology and still appeared dead”. The “NO levels, in words” value in [2] is listed as “moderately increased”. Besides, the “NO production (nitrite)” value in data set [2] was 7.89 µM. The “Adverse toxicity” value in [3] is recorded as “Absence of adverse toxicity”. Further, the MIC in [4] (setting [10]) came to 0.25 µg/mL (≈ 1.13 µM); in data set [5] (setting [13]), 2 µg/mL (≈ 9 µM); in data set [6] (setting [15]), 16 µg/mL (≈ 72 µM); in data set [7] (read-out: MIC, Sa ATCC 29213, broth microdilution, 35°C, 24 h) it was 0.5 µg/mL (≈ 2.25 µM); in [8] (setting [19]), 16 µg/mL (≈ 72 µM); in data set [9] (setting [21]) it was 0.25 µg/mL (≈ 1.13 µM). Besides, the MFC in data set [4] (setting [11]) came out at 0.25 µg/mL (≈ 1.13 µM); in data set [5] (setting [14]), 2 µg/mL (≈ 9 µM). For the same molecule, the MBC in data set [6] (setting [16]) came to 16 µg/mL (≈ 72 µM); in [7] (setting [18]) it was 0.5 µg/mL (≈ 2.25 µM); in data set [8] (setting [20]) it was 16 µg/mL (≈ 72 µM); in data set [9] (setting [22]), 0.25 µg/mL (≈ 1.13 µM).

With `COc1ccc(/C=C(\C)[N+](=O)[O-])cc1` [Compound 14, 1-methoxy-4-((E)-2-nitroprop-1-enyl) benzene], the “Leishmanicidal effect” value in data set [1] was “did not revert back to their normal morphology and still appeared dead”. For the same molecule, the “NO levels, in words” value in data set [2] is “mildly induced”. In data set [2], the “NO production (nitrite)” value was 5.89 µM. For the same molecule, the “Adverse toxicity” value in data set [3] is given as “Absence of adverse toxicity”. Also, the MIC in data set [4] (broth microdilution, 35°C, 48 h, read-out: MIC, Cg ATCC 90030) was 8 µg/mL (≈ 41.4 µM); in data set [5] (broth microdilution, 35°C, 48 h, read-out: MIC, Ca ATCC 90028) it was 32 µg/mL (≈ 166 µM); in data set [6] (broth microdilution, 35°C, 24 h, read-out: MIC, Ec ATCC 25922), 64 µg/mL (≈ 331 µM); in [7] (broth microdilution, 35°C, 24 h, read-out: MIC, Sa ATCC 29213), 8 µg/mL (≈ 41.4 µM); in data set [8] (broth microdilution, 35°C, 24 h, read-out: MIC, Pa ATCC 27853) it was over 64 µg/mL; in data set [9] (broth microdilution, 35°C, 24 h, read-out: MIC, Se ATCC 14990) it was 4 µg/mL (≈ 20.7 µM). For the same molecule, the values for the MFC in [4] (setting [23]) and in data set [5] (setting [24]) were 8 µg/mL (≈ 41.4 µM) and 32 µg/mL (≈ 166 µM), respectively. Moreover, the MBC in [6] (setting [25]) was over 64 µg/mL; in [7] (setting [26]), 8 µg/mL (≈ 41.4 µM); in data set [8] (setting [27]), over 64 µg/mL; in [9] (setting [28]) it was 4 µg/mL (≈ 20.7 µM).

In the case of `CC/C(=C\c1ccc(O)cc1)[N+](=O)[O-]` [Compound 18, 4-((E)-2-nitrobut-1-enyl) phenol], in data set [1], the “Leishmanicidal effect” value is “did not revert back to their normal morphology and still appeared dead”. In data set [2], the “NO production (nitrite)” value was determined as 3.22 µM. The “Adverse toxicity” value in [3] is “Absence of adverse toxicity”. Further, the MFC was determined as 8 µg/mL (≈ 41.4 µM) in [4] (setting [23]) and 16 µg/mL (≈ 82.8 µM) in data set [5] (setting [24]). In addition, the MBC in data set [6] (setting [25]) was over 64 µg/mL; in data set [7] (setting [26]), 16 µg/mL (≈ 82.8 µM); in data set [8] (setting [27]) it was over 64 µg/mL; in data set [9] (setting [28]) it was 8 µg/mL (≈ 41.4 µM).
